# Measurements taken from US20120238488A1, “COMPOUNDS AND METHODS FOR TREATING NEOPLASIA” (priority 2009, published 2012).
# Like-named read-outs stand apart in the source and are kept apart here.
# Key:
# [1] = tested on: OVCAR3 (Ovary); assay: SRB assay, OVCAR3; assay type: cell-based, human; conditions: for CC50 / GI50: Homo sapiens; for CC50: OVCAR-3, 48 h, read-out: LC50; for GI50: OVCAR-3; for GI50 / TGI: OVCAR3, SRB, 48 h
# Method: (§1) SRB assays were performed according to standard National Cancer Institute Guidelines. Briefly, human tumor cells from different cancer panels were seeded into 96 well plates in 100 μL (plating densities ranging from 5-40,000 cells/well depending on the doubling time of individual cell lines) in serum-containing media for twenty-four hours prior to the addition of the compounds to be assayed. After 24 hours, one plate of each cell line was fixed in situ with trichloroacetic acid (TCA). The fixed slides were used to determine the cell population for each cell line at the time of drug addition (Tz). Each compound to be tested was solubilized in DMSO and the desired concentration was then added to the medium and diluted serially 1:10 to provide a total of five or ten drug concentrations plus control (in a final volume of 200 μL). The starting dose before any dilution was 100 uM for all compounds.
# (§2) Following drug addition, each culture was incubated for forty-eight hours. The assay was terminated with the addition of cold TCA. The supernatant was discarded, and the plates were washed with tap water and air dried. Sulforhodamine B (SRB) solution was then added to each well. After staining, the bound stain was solubilized and the absorbance was read on an automated plate reader at a wavelength of 515 nm.
# (§3) Using the absorbance measurements [time zero, (Tz), control growth, (C), and test growth in the presence of drug at the ten concentration levels (Ti)], the percentage growth was calculated at each of the drug concentrations levels. Percentage growth inhibition was calculated as:
# (§4) [(Ti−Tz)/(C−Tz)]×100 for concentrations for which Ti>/=Tz
# (§5) [(Ti−Tz)/Tz]×100 for concentrations for which Ti<Tz.
# (§6) Three dose response parameters were calculated for each experimental agent. Growth inhibition of 50% (GI50) was calculated from [(Ti−Tz)/(C−Tz)]×100=50, which was the drug concentration resulting in a 50% reduction in the net protein increase (as measured by SRB staining) in control cells during the drug. The drug concentration resulting in total growth inhibition (TGI) was calculated from Ti=Tz. The LC50 (concentration of drug resulting in a 50% reduction in the measured protein at the end of the drug treatment as compared to that at the beginning) indicating a net loss of cells following treatment was calculated from [(Ti−Tz)/Tz]×100=−50.
# (§7) Values were calculated for each of these three parameters when the level of activity was reached; however, if the effect was not reached or was exceeded, the value for that parameter was expressed as greater or less than the maximum or minimum concentration tested.
# (§8) Table 4 summarizes results characterizing the effects of compound Nos. 120, 12, 61, 1, and 56 on GI50, which measures the cell growth inhibitory power of the compound, TGI, which measures cytostatic effect (TGI) and LC50, which signifies cytotoxic effect. Each of these parameters in Table 4 was calculated in a sulforhodamine B (SRB) assay, which provides a colorimetric measure of a compound's anti-cancer activity. SRB assays were performed with compounds of the invention in 22 different cell lines (shaded in light gray in Table 4), which represent nine different tumor panels (lung, melanoma, ovary, prostate, CNS, breast, pancreas colon and renal). Ouabain and digoxin were used as controls. Paclitaxel was added as a non-Na^+K^+-ATPase inhibitor control.
# [2] = tested on: DU145 (Prostate); assay: SRB assay, DU145; assay type: cell-based, human; conditions: for TGI / GI50: DU145, SRB, 48 h; for CC50 / GI50: Homo sapiens; for CC50: DU-145, 48 h, read-out: LC50; for GI50: DU-145
# Method: as §1, §2, §3, §4, §5, §6, §7, §8
# [3] = tested on: PCJ (Prostate); assay: SRB assay, PCJ; assay type: cell-based; conditions: Homo sapiens, 48 h; for CC50: read-out: LC50; for GI50 / IC (TGI): PCJ, SRB
# Method: as §1, §2, §3, §4, §5, §6, §7, §8
# [4] = tested on: OVCAR5 (Ovary); assay: SRB assay, OVCAR5; assay type: cell-based, human; conditions: for CC50 / GI50: Homo sapiens; for CC50: OVCAR-5, 48 h, read-out: LC50; for GI50: OVCAR-5; for GI50 / TGI: OVCAR5, SRB, 48 h
# Method: as §1, §2, §3, §4, §5, §6, §7, §8
# [5] = tested on: A549 (Lung); assay: SRB assay, A549; assay type: cell-based, human; conditions: for TGI / GI50: A549, SRB, 48 h; for CC50 / GI50: Homo sapiens; for CC50: A549, 48 h, read-out: LC50
# Method: as §1, §2, §3, §4, §5, §6, §7, §8
# [6] = tested on: SKMEL28 (Melanoma); assay: SRB assay, SKMEL28; assay type: cell-based, human; conditions: for CC50 / GI50: Homo sapiens; for CC50: SK-MEL-28, 48 h, read-out: LC50; for GI50: SK-MEL-28; for GI50 / TGI: SKMEL28, SRB, 48 h
# Method: as §1, §2, §3, §4, §5, §6, §7, §8
# [7] = tested on: SF268 (CNS); assay: SRB assay, SF268; assay type: cell-based; conditions: Homo sapiens; for CC50: SF-268, 48 h, read-out: LC50; for GI50 / IC (TGI): SF-268, SF268, SRB, 48 h; for GI50: read-out: GI50; for IC (TGI): read-out: TGI
# Method: as §1, §2, §3, §4, §5, §6, §7, §8
# [8] = tested on: ADRRES (Ovary); assay: SRB assay, ADRRES (multidrug resistant NCI-ADR-RES); assay type: cell-based, human; conditions: for TGI / GI50: ADRRES; for TGI / CC50 / GI50: 48 h; for CC50 / GI50: Homo sapiens, NCI/ADR-RES; for CC50: read-out: LC50; for anti-tumor action in multidrug resistant cell line NCI-ADR-RES: cells express high levels of MDR1 and P-glycoprotein
# Method: NCI-ADR-RES cells have been classified as ovarian cancer cells by the National Cancer Institute.
# as §1, §2, §3, §4, §5, §6, §7, §8
# Table 4 also presents results with Compound Nos. 120, 12, 61, 1, and 56 in a well characterized drug resistant cell line, NCI-ADR-RES, that expresses high levels of MDR1 and P-glycoprotein.
# [9] = tested on: ERVK (Lung); assay: SRB assay, ERVK; assay type: cell-based, human; conditions: 48 h; for TGI / GI50: ERVK, SRB; for CC50 / GI50: Homo sapiens; for CC50: read-out: LC50
# Method: as §1, §2, §3, §4, §5, §6, §7, §8
# [10] = tested on: CAKJ1 (Renal); assay: SRB assay, CAKJ1; assay type: cell-based, human; conditions: 48 h; for TGI / GI50: CAKJ1, SRB; for CC50 / GI50: Homo sapiens; for CC50: read-out: LC50
# Method: as §1, §2, §3, §4, §5, §6, §7, §8
# [11] = tested on: MB435 (Melanoma); assay: SRB assay, MB435; assay type: cell-based, human; conditions: 48 h; for CC50 / GI50: Homo sapiens; for CC50: read-out: LC50; for GI50 / TGI: MB435, SRB
# Method: as §1, §2, §3, §4, §5, §6, §7, §8
# [12] = tested on: HCT116 (Colon); assay: SRB assay, HCT116; assay type: cell-based; conditions: Homo sapiens; for CC50: HCT-116, 48 h, read-out: LC50; for GI50 / IC (TGI): HCT-116, HCT116, SRB, 48 h
# Method: as §1, §2, §3, §4, §5, §6, §7, §8
# [13] = tested on: Na+/K+-ATPase (Adenosine 5′-Triphosphatase isolated from porcine cerebral cortex); assay: Na+/K+-ATPase inhibitory activity, colorimetric Adenosine 5'-Triphosphatase Enzymatic Assay; assay type: biochemical
# Method: The inhibitory effect of a compound of the invention on ATPase activity was assessed in vitro using the colorimetric Adenosine 5′-Triphosphatase Enzymatic Assay of Sigma (St. Louis, Mo.) according to the manufacturer's instructions. This assay utilizes Adenosine 5′-Triphosphatase isolated from porcine cerebral cortex. Each reaction was performed in a final volume of 250 μl using 0.5 units/ml enzyme in the presence of different inhibitors. […] IC50 values were determined using the Origin® program software (OriginLab, Northampton, Mass.).
# [14] = read-out: Na+K+ ATPase inhibitory activity IC50
SMILES,TGI [2],CC50 [2],GI50 [2],CC50 [3],GI50 [3],IC (TGI) [3],TGI [5],CC50 [5],GI50 [5],CC50 [6],GI50 [6],TGI [6],CC50 [7],GI50 [7],IC (TGI) [7],TGI ([8]; SRB),CC50 [8],GI50 ([8]; SRB),TGI [10],CC50 [10],also measured
"C[C@]12CCC(=NOCCN)CC1CCC1C2CC[C@]2(C)C(=O)CCC12 (stereo partly drawn) [Compound 1, (10S,13S)-3-(2-aminoethoxyimino)-10,13-dimethyltetradecahydro-1H-cyclopenta[a]phenanthren-17(2H)-one]",588.2 nM,844 nM,332 nM,897 nM,253 nM,575 nM,582.5 nM,850 nM,315 nM,7540 nM,517 nM,928.4 nM,908 nM,385 nM,647 nM,647.9 nM,944 nM,321 nM,643 nM,948 nM,"CC50 [1]: 984 nM; GI50 [1]: 291 nM; TGI [1]: 637.5 nM; CC50 [4]: 7320 nM; GI50 [4]: 834 nM; TGI [4]: 3763 nM; anti-tumor action in multidrug resistant cell line NCI-ADR-RES ([8]; SRB): potent anti-tumor action; TGI [9]: 640.6 nM; CC50 [9]: 943 nM; GI50 [9]: 338 nM; GI50 [10]: 338 nM; CC50 [11]: 6380 nM; GI50 [11]: 598 nM; TGI [11]: 1399.5 nM; CC50 [12]: 8100 nM; GI50 [12]: 364 nM; IC (TGI) [12]: 1310 nM; Na+K+ ATPase inhibitory activity (in words) [13]: very potent Na+K+ ATPase inhibitors; IC50 [13, 14]: 124 nM"
"C[C@]12CCC(=NOC3CCNC3)C=C1CCC1C2CC[C@]2(C)C(=O)CCC12 (stereo partly drawn) [Compound 61, (10R,13S)-10,13-dimethyl-3-(pyrrolidin-3-yloxyimino)-2,3,7,8,9,10,11,12,13,14,15,16-dodecahydro-1H-cyclopenta[a]phenanthren-17(6H)-one]",626.2 nM,895 nM,357 nM,7420 nM,281 nM,1810 nM,514.9 nM,823 nM,207 nM,12300 nM,993 nM,6623 nM,8030 nM,567 nM,3020 nM,1015.6 nM,6070 nM,564 nM,1251.6 nM,6650 nM,"CC50 [1]: 6120 nM; GI50 [1]: 355 nM; TGI [1]: 800.4 nM; CC50 [4]: 9060 nM; GI50 [4]: 3850 nM; TGI [4]: 6454.9 nM; anti-tumor action in multidrug resistant cell line NCI-ADR-RES ([8]; SRB): potent anti-tumor action; TGI [9]: 2471 nM; CC50 [9]: 6840 nM; GI50 [9]: 493 nM; GI50 [10]: 268 nM; CC50 [11]: 8200 nM; GI50 [11]: 649 nM; TGI [11]: 3378.4 nM; CC50 [12]: 9260 nM; GI50 [12]: 286 nM; IC (TGI) [12]: 1310 nM; Na+K+ ATPase inhibitory activity (in words) [13]: strong Na+K+ ATPase inhibitory activities; IC50 ([13]; 0.5 units/ml enzyme, five concentrations 10^−5 to 10^−9M, read-out: Na+ K+ Inhibitory Activity (IC50)): 496 nM"
"C[C@]12CCC(=NOCCN)C=C1CCC1C2CC[C@]2(C)C(=O)CCC12 (stereo partly drawn) [Compound 12, (10R,13S)-3-(2-aminoethoxyimino)-10,13-dimethyl-2,3,7,8,9,10,11,12,13,14,15,16-dodecahydro-1H-cyclopenta[a]phenanthren-17(6H)-one]",5750 nM,8450 nM,3040 nM,8520 nM,3540 nM,6030 nM,6900 nM,9730 nM,4080 nM,85600 nM,8390 nM,40160 nM,8510 nM,2840 nM,5670 nM,6580 nM,10100 nM,3080 nM,6560 nM,9440 nM,"CC50 [1]: 88800 nM; GI50 [1]: 3010 nM; TGI [1]: 28790 nM; CC50 [4]: 63600 nM; GI50 [4]: 5300 nM; TGI [4]: 9020 nM; GI50 in NCI-ADR-RES cells compared to non-resistant MCF-7 cells ([8]; SRB): the same GI50 value; anti-tumor action in multidrug resistant cell line NCI-ADR-RES ([8]; SRB): potent anti-tumor action; TGI [9]: 5130 nM; CC50 [9]: 8800 nM; GI50 [9]: 1450 nM; GI50 [10]: 3690 nM; CC50 [11]: 75800 nM; GI50 [11]: 5450 nM; TGI [11]: 10240 nM; CC50 [12]: 10700 nM; GI50 [12]: 4060 nM; IC (TGI) [12]: 7380 nM; Na+K+ ATPase inhibitory activity (in words) [13]: strong Na+K+ ATPase inhibitory activities; IC50 [13, 14]: 375 nM"
"CC(=O)O[C@H]1C(=O)[C@@]2(C)[C@H]([C@H](OC(=O)c3ccccc3)[C@]3(O)C[C@H](OC(=O)[C@H](O)[C@@H](NC(=O)c4ccccc4)c4ccccc4)C(C)=C1C3(C)C)[C@]1(OC(C)=O)CO[C@@H]1C[C@@H]2O [Paclitaxel, reference compound]",8.6 nM,143 nM,< 1 nM,> 10000 nM,< 100 nM,> 10000 nM,6138.4 nM,15300 nM,< 1 nM,> 10000 nM,2300 nM,>10000 nM,> 10000 nM,< 100 nM,1930 nM,5803.4 nM,10600 nM,1050 nM,4969 nM,11600 nM,GI50 [10]: < 1 nM; CC50 [12]: > 10000 nM; GI50 [12]: < 100 nM; IC (TGI) [12]: 2240 nM
